Data from patent publication US20040002425A1, “Triketone derivatives and herbicides” (Idemitsu Kosan Co., Ltd., priority 1998, published 2004).

Test system: Transplanted paddy rice plant
Test: Biological Test 1 (treatment on the 3rd day after transplantation): chemical injury to paddy rice
Format: in vivo
Design: scale not given here
Conditions: Treatment performed 3 days after transplantation
Method: (1) Preparation of Herbicide
Talc (57 parts by weight) and bentonite (40 parts by weight), both serving as carriers, and sodium alkylbenzenesulfate (3 parts by weight) serving as a surfactant were homogeneously ground and mixed to thereby obtain a carrier for water-dispersible powder.
Subsequently, to the water-dispersible powder (90 parts by weight), the triketone derivative (compound No. A-1) produced in Example I-1 (10 parts by weight) was added, and the resultant mixture was homogeneously ground and mixed to thereby obtain a herbicide.
(i) Biological Test 1 (Soaking in Water/Treatment on the 3rd Day After Transplantation)
A Wagner pot (1/2000 are) was filled with paddy soil, and seeds of barnyard grass were planted on the surface layer of the soil, and further, rice seedlings grown to the 2.5-leaf stage were transplanted.
Subsequently, water was poured in the pot to a height of 3 cm above the soil surface, and placed in a greenhouse where the temperature was maintained at 20-25° C., to thereby grow the plant under suitable conditions.
On the 3rd day after transplantation, the herbicide prepared in (1) above was applied to the plant in a predetermined amount. On the 30th day after treatment with the herbicide, weed-killing ratio, herbicidal effect, and extent of chemical injury to paddy rice were examined.
In Biological tests 1 and 2, herbicidal effect and extent of chemical injury were evaluated according to the below-described standards.
3) Chemical Injury to Paddy Rice
Chemical injury to paddy rice was evaluated according to the following criteria.

[1] = dose 100 g/ha, examined on the 30th day after treatment
[2] = dose 200 g/ha, examined on the 30th day after treatment

Row | Compound | Chemical injury, Transplanted paddy rice plant (dose 100 g/ha) | Chemical injury, Transplanted paddy rice plant (dose 200 g/ha) | Chemical injury, Transplanted paddy rice plant [1] | Chemical injury, Transplanted paddy rice plant [2]
1 | CCCSC1=C(C(=O)c2cc(C)c3c(c2C)/C(=N/OC)CCS3(=O)=O)C(=O)CCC1 [B-61, 4-methoxyimino-5,8-dimethyl-6-[3-(3-propyl)thio-1-oxocyclohexan-2-yl)carbonylthiochroman-1,1-1,1-dioxide] | 0 | 0 |  | 
2 | CCCS(=O)(=O)C1=C(C(=O)c2cc(C)c3c(c2C)/C(=N/OC)CCS3(=O)=O)C(=O)CCC1 [B-62, 4-methoxyimino-5,8-dimethyl-6-[3-(3-propyl)sulfonyl-1-oxocyclohexan-2-yl]carbonylthiochroman-1,1-1,1-dioxide] | 0 | 0 |  | 
3 | Cc1c(C(=O)C2=C(Cl)CCCC2=O)ccc2c1C(=O)C(C)(C)CS2(=O)=O [B-63] | 3 | 5 |  | 
4 | Cc1c(C(=O)C2=C(Sc3ccc(Cl)cc3)CCCC2=O)ccc2c1C(=O)C(C)(C)CS2(=O)=O [B-64, 3,3,5-trimethyl-6-[3-(4-chloro)thio-1-oxocyclohexan-2-yl]carbonylthiochroman-4-one-1,1-dioxide] | 2 | 5 |  | 
5 | Cc1c(C(=O)C2=C(S(=O)(=O)c3ccc(Cl)cc3)CCCC2=O)ccc2c1C(=O)C(C)(C)CS2(=O)=O [B-65] | 3 | 4 |  | 
6 | Cc1cc(C(=O)C2=C(Cl)CCCC2=O)c(C)c2c1S(=O)(=O)CCC2OC(C)C (stereo not drawn) [B-66] | 0 | 4 |  | 
7 | CSC1=C(C(=O)c2cc(C)c3c(c2C)C(OC(C)C)CCS3(=O)=O)C(=O)CCC1 (stereo not drawn) [B-67] | 0 | 1 |  | 
8 | Cc1cc(C(=O)C2=C(Sc3ccccc3)CCCC2=O)c(C)c2c1S(=O)(=O)CCC2OC(C)C (stereo not drawn) [B-68, 4-(2-propyl)oxy-5,8-dimethyl-6-(3-phenylthio-1-oxocyclohexan-2-yl)carbonylthiochroman-1,1-dioxide] | 0 | 0 |  | 
9 | Cc1cc(C(=O)C2=C(S(C)(=O)=O)CCCC2=O)c(C)c2c1S(=O)(=O)CCC2OC(C)C (stereo not drawn) [B-69] | 0 | 1 |  | 
10 | Cc1cc(C(=O)C2=C(SCc3ccccc3)CCCC2=O)c(C)c2c1S(=O)(=O)CCC2OC(C)C (stereo not drawn) [B-70] | 0 | 0 |  | 
11 | Cc1cc(C(=O)C2=C(S(=O)(=O)Cc3ccccc3)CCCC2=O)c(C)c2c1S(=O)(=O)CCC2OC(C)C (stereo not drawn) [B-71] | 0 | 1 |  | 
12 | CO/N=C1\CCS(=O)(=O)c2ccc(C(=O)C3=C(Cl)CCCC3=O)c(C)c21 [B-72] | 0 | 0 |  | 
13 | CO/N=C1\CCS(=O)(=O)c2ccc(C(=O)C3=C(SC)CCCC3=O)c(C)c21 [B-73] | 0 | 0 |  | 
14 | CO/N=C1\CCS(=O)(=O)c2ccc(C(=O)C3=C(Sc4ccccc4)CCCC3=O)c(C)c21 [B-74, 4-methoxyimino-5-methyl-6-(3-phenylthio-1-oxocyclohexan-2-yl)carbonylthiochroman-1,1-dioxide] | 0 | 0 |  | 
15 | CO/N=C1\CCS(=O)(=O)c2ccc(C(=O)C3=C(S(=O)(=O)c4ccccc4)CCCC3=O)c(C)c21 [B-75] | 0 | 1 |  | 
16 | CO/N=C1\CCS(=O)(=O)c2ccc(C(=O)C3=C(N(C)OC)CCCC3=O)c(C)c21 [B-76, 4-methoxyimino-5-methyl-6-[3-(N-methoxymethyl)amino-1-oxocyclohexan-2-yl]carbonylthiochroman-1,1-dioxide] | 0 | 1 |  | 
17 | O=C1CCCC(Cl)=C1C(=O)c1ccc2c(c1Cl)CCCS2(=O)=O [B-77] | 0 | 0 |  | 
18 | O=C1CCCC(Sc2ccccc2)=C1C(=O)c1ccc2c(c1Cl)CCCS2(=O)=O [B-78] | 0 | 0 |  | 
19 | CSC1=C(C(=O)c2ccc3c(c2Cl)CCCS3(=O)=O)C(=O)CCC1 [B-79] | 0 | 0 |  | 
20 | CS(=O)(=O)C1=C(C(=O)c2ccc3c(c2Cl)CCCS3(=O)=O)C(=O)CCC1 [B-80] | 0 | 0 |  | 
21 | O=C1CCCC(O)=C1C(=O)c1cc2c(cc1[N+](=O)[O-])OCO2 [Comparative Example I-1, reference compound] |  |  | 3 | 4
22 | O=C1CCCC(O)=C1C(=O)c1cccc2c1OCCO2 [Comparative Example I-2, reference compound] |  |  | 0 | 0
23 | Cc1cc(C(=O)C2=C(O)CCCC2=O)c(C)c2c1S(=O)(=O)CC2C (stereo not drawn) [Comparative Example I-3, reference compound] |  |  | 3 | 4
24 | Cc1cc(C(=O)C2=C(O)CCCC2=O)c(C)c2c1S(=O)(=O)C(C)C2 (stereo not drawn) [Comparative Example I-4, reference compound] |  |  | 2 | 4
